# Results taken from the SangsterLogP compilation.
# Assay: method code SF, from DOI: 10.1016/j.ejps.2012.10.019, PMID: 23131797
# Details: pH 2.0
row,Compound,logD
1,Cc1cccc(C)c1NC(=O)Cn1cc(C(=O)C2CC2)c2ccccc21,3.47
2,Cc1ccc(OCCC(=O)N2CCN(S(=O)(=O)c3cccs3)CC2)cc1,2.98
3,COc1cccc(-n2c(SCc3cc(=O)n4ccsc4n3)nc3ccccc3c2=O)c1,3.56

# Same assay, conditions: pH 5.0
row,Compound,logD
1,COC(=O)c1cc(C(=O)OCC(=O)c2[nH]c(C)c(C(C)=O)c2C)cc([N+](=O)[O-])c1,3.82
2,O=C(OCC(=O)N1CCCC1)c1c2ccccc2cc2ccccc12,4.09
3,O=C(c1ccc(F)cc1)C1CC1,2.61
4,COC(=O)/C=C/CN1C(=O)c2ccccc2C1=O,2.46
5,COc1ccc(CNC(=O)C2CCCC2)cc1,2.6
6,O=C(COc1ccc2ccccc2c1)N1CCN(S(=O)(=O)c2ccc3c(c2)OCCO3)CC1,4.47
7,O=C1CC(c2cccc([N+](=O)[O-])c2)CC2=C1C(c1ccco1)N(C(=O)C(F)(F)F)c1ccccc1N2 (centres undefined),4.68
8,O=C(COC(=O)c1cccc(S(=O)(=O)N2CCc3ccccc32)c1)Nc1ccc(F)c(F)c1F,5.31
9,COc1cc(C(=O)Nc2ccccc2C(C)(C)C)cc(OC)c1OC,3.61
10,CC(C)NC(=S)N1CCN(S(=O)(=O)c2cccc(C(F)(F)F)c2)CC1,3.9
11,CCc1ccc(-n2nnnc2SCC(=O)Nc2ccc(C(C)=O)cc2)cc1,4.69
12,CCCc1ccc(OCc2ccc(C(=O)Nc3ccccc3C(=O)OC)o2)c(OC)c1,5.89
13,COC(=O)CN(c1ccccc1)S(=O)(=O)c1ccc(OC)cc1,3.43
14,Cc1sc2nc(SCC(=O)N3CCCC3)n(C3CCCCC3)c(=O)c2c1C,5.16
15,CCOC(=O)N1CCN(C(=O)/C=C/c2ccc(Cl)c(Cl)c2)CC1,4.34
16,CCCS(=O)(=O)c1c(S(=O)(=O)CCC)c2cnccn2c1C(=O)c1ccc(C)cc1,3.93
17,C#Cc1cccc(NC(=O)c2cc(C(=O)Nc3cccc(C#C)c3)cc(N3C(=O)c4ccccc4C3=O)c2)c1,6.85
18,CSc1sc(C(=O)N2CCOCC2)c2c1S(=O)(=O)N(C)c1ccccc1-2,3.11
19,CC(=O)Oc1cccc(N2C(=O)c3ccc(C(=O)c4ccc5c(c4)C(=O)N(c4cccc(OC(C)=O)c4)C5=O)cc3C2=O)c1,5.13
20,COc1cc(C(=O)Nc2cccc(C#N)c2)cc(OC)c1OC,3.44

row,Compound,logD
1,Cc1c(OCc2ccccc2)cccc1[N+](=O)[O-],4.41
2,c1ccc2c(c1)OCCOCCOCCO2,1.81
3,O=C1c2ccc(-c3ccc4c(c3)C(=O)N(CCO)C4=O)cc2C(=O)N1CCO,3.19
4,CC12CCCC(C(N)=O)(CCC1)C2,2.73
5,O=C(CSCc1ccccc1)Nc1ccc(-c2ccc([N+](=O)[O-])cc2)cc1,5.38
6,O=C(CSc1nc2ccccc2s1)c1cccs1,4.04
7,Cc1ccc(C)c(S(=O)(=O)N(C)c2ccc(OC(=O)c3ccc4c(c3)OCO4)cc2)c1,5.87
8,Cn1c2ccccc2n2c3nc(C#N)c(C#N)nc3c(C#N)c12,3.61
9,CCOC(=O)C(C)(C)N(CCC(C)C)S(=O)(=O)c1ccc([N+](=O)[O-])cc1,4.75
10,CC(=O)c1cc2ccccc2o1,2.15
11,Cc1cc(=O)oc2cc(OC(C)C)ccc12,3.33
12,C=CCOC(=O)COc1ccc2c(=O)c(-c3ccc(Cl)cc3)c(C)oc2c1,4.84
13,O=C(Nc1ccc(S(=O)(=O)c2ccc(NC(=O)c3cccs3)cc2)cc1)c1cccs1,4.46
14,COc1ccc(C(=O)OCC(=O)NC2CCCCCCC2)cc1[N+](=O)[O-],4.28
15,O=C(NCCc1ccccc1)c1ccc(Cl)cc1,3.71
16,COC(=O)c1ccc(Br)c(S(=O)(=O)N2CCCCC2)c1,3.66
17,N#CCSc1nc2ccccc2c(=O)n1-c1ccc(OC(F)F)cc1,4.17
18,COc1cccc2c1N(C(=O)CC(C)C)C(C)(C)c1ssc(=S)c1-2,5.09
19,CCc1nc2sc(C#N)c(N)n2c(=O)c1C#N,2.09
20,CCOC(=O)c1c(C)[nH]c(C)c1C(=O)COC(=O)c1ccc(F)c(S(=O)(=O)N2CCOCC2)c1,3.63

row,Compound,logD
1,CC(=O)NCCc1ccc(S(=O)(=O)N2CCOCC2)cc1,2
2,COc1cc2c(cc1NC(=O)COC(=O)c1cc(OC)c(OC)cc1[N+](=O)[O-])oc1ccccc12,5.04
3,COc1ccc(OC)c(NC(=O)c2ccc(NC3=C(Cl)C(=O)N(C4CCCCC4)C3=O)cc2)c1,5.96
4,Clc1ccc(CSc2ncccn2)cc1Cl,4.33
5,O=C(c1c(F)cccc1F)N1CCCC1,1.88
6,C#CCOc1c(I)cc(C=C2C(=O)N(C)C(=S)N(C)C2=O)cc1OCC,3.72
7,O=C(OCC(=O)N(C1CCCCC1)C1CCCCC1)c1ccc(Cl)nc1,4.99
8,COc1ccc(S(=O)(=O)N(CC(=O)Nc2cccc([N+](=O)[O-])c2)C2CCCCC2)cc1Cl,5.48
9,Cc1cc(C(=O)COC(=O)c2oc3ccccc3c2COC(C)C)c(C)n1-c1c(C)n(C)n(-c2ccccc2)c1=O,5.39
10,COC(=O)c1ccc(C)c(NC(=O)Cc2coc3cc4c(cc23)CCC4)c1,4.78
11,CC(NS(C)(=O)=O)c1ccccc1 (centres undefined),1.8
12,O=C(OCC(=O)N1CCC(Cc2ccccc2)CC1)C1CCCCC1,4.98
13,CCCCC(=O)Nc1ccc(F)c([N+](=O)[O-])c1,3.04
14,COc1ccc(CCNC(=O)CSc2nc3c(c(=O)n(C)c(=O)n3C)n2Cc2ccccc2F)cc1OC,4
15,COc1ccc2c(C)c(C)c(=O)oc2c1C,3.45
16,CC1=CC(C)C(CO)(CO)C(C)C1 (centres undefined),2.93
17,CCOc1cc(C#N)c(NC(=O)c2cc(S(=O)(=O)N3CCOCC3)c(Cl)cc2Cl)cc1OCC,4.31
18,O=C(COc1ccc(C(F)(F)F)cc1[N+](=O)[O-])Nc1ccccc1Br,5.16

# Same assay, conditions: pH 6.5
row,Compound,logD
1,CS(=O)(=O)N(CC(=O)Nc1c(F)cccc1F)c1cc(Cl)c(Cl)cc1Cl,4.34
2,CCOc1ccc(CC(=O)C2=C(N3CCCC3)CCCC2=O)cc1OCC,3.3
3,COC(=O)c1cccc(NC(=O)c2cc(C(=O)Nc3cccc(C(=O)OC)c3)cc(N3C(=O)c4ccccc4C3=O)c2)c1,6.09
4,COc1ccccc1N1C(=O)c2ccc(C(=O)Nc3ccc(-c4nnc(-c5ccccc5)o4)cc3)cc2C1=O,6.17
5,CCN(CC)C(=O)c1sc(NC(=O)c2cc(OC)cc(OC)c2)c(C(=O)OC)c1C,5.47
6,CC1CCC2(CC1)N=C(c1ccccc1)C(=O)N2CC(=O)Nc1ccc2c(c1)OCCO2 (centres undefined),5.07
7,O=C(CSc1nc2ccccc2c(=O)n1-c1ccc(Cl)cc1)NC1CCCCC1,4.92

# Same assay, conditions: pH 7.3
row,Compound,logD
1,O=C(CSc1nnc(-c2ccccc2F)n1CCc1ccccc1)N1CCOCC1,3.79
2,COC(=O)c1sc(N)nc1C,1.48
3,NC(=O)CSc1nc2c(c(=O)n1Cc1ccco1)C1(CCCCC1)Cc1ccccc1-2,5.45
4,CC(C)N(C(=O)CSc1nnc(NCc2ccccc2)s1)C(C)C,4.09
5,CC(C)CCn1c(NCCO)nc2c1c(=O)n(C)c(=O)n2C,2.93
6,CCn1c(SCc2nc3c4cnn(C)c4ncn3n2)nnc1-c1cc(C(F)(F)F)n(C)n1,3.85
7,Cc1nccn1S(=O)(=O)c1ccc(Cl)cc1,2.93
8,O=C(c1cccnc1)N1CCN(S(=O)(=O)c2ccccc2)CC1,2.3
9,CC(Sc1nnc(-c2ccc(F)cc2)n1-c1ccccc1)C(N)=O (centres undefined),3.38
10,CCN1C(=O)c2cccc3c(S(=O)(=O)N(C(=O)c4cccnc4)c4ccc(OC)cc4)ccc1c23,4.74
11,O=C(c1ccccc1)c1ccc(N2CCN(C(=O)c3c(F)cccc3F)CC2)c(F)c1,5.14
12,COC(=O)c1cc(OC)c(OC)cc1NC(=O)CSc1nncn1C,2.78
13,Cc1cc(Br)ccc1NC(=O)CSc1nnc(N)s1,2.69
14,C=CCn1c(SCc2ccccc2)nc2ccccc2c1=O,5.11
15,COc1ccc(C2CC(=O)C3=C(C2)Nc2ccccc2N(C(=O)C(F)(F)F)C3c2cc(OC)c(OC)c(OC)c2)cc1 (centres undefined),4.87
16,O=C(CSc1ncnc2sc3c(c12)CCC3)Nc1ccc(F)cc1,4.69
17,CCc1ccccc1Nc1nc(N)nc(CSc2nnc(-c3ccc(OC(F)F)cc3)n2N)n1,4.35
18,O=C(c1nn(-c2ccccc2)c(=O)c2ccccc12)N1CCOCC1,2.47
19,O=C(Nc1cc2c(n(CCNc3ncc(C(F)(F)F)cc3Cl)c1=O)CCCC2=O)c1ccc(Cl)cc1,5.83
20,COc1cccc(NC(=O)CSc2nnc3ccccn23)c1,2.45

# Same assay, conditions: pH 10.0
row,Compound,logD
1,CCOC(=O)C1=C(C)NC(C)=C(C(=O)OC)C1c1ccco1 (centres undefined),3.67
2,CCOC(=O)CC1=Nn2c(nnc2-c2cccs2)SC1,2.98
3,Cn1c(N)c(C(=O)COC(=O)C2CC2)c(=O)n(C)c1=O,2.17
4,Cc1ccc(C)n1-c1ccc(-c2ccnc3ncnn23)cc1,3.5
5,Nc1ccccc1Nc1ccccc1,2.67
6,CC1(C)CC(=O)C2=C(C1)OC(N)=C(C#N)C21CCC2(CC1)OCCO2,3.24
7,O=C(c1ccc2c(c1)C(=O)N(c1nccs1)C2=O)c1ccc2c(c1)C(=O)N(c1nccs1)C2=O,3.25

# Same assay, conditions: pH 10.5
row,Compound,logD
1,C=C(C)CSc1nnc(-c2cccc(S(=O)(=O)N3CCOCC3)c2)n1C1CCCC1,4.73
2,CCOc1cc(-c2nnc(-c3ccco3)o2)cc(OCC)c1OCC,3.96
3,CC(C)(C)c1cc(Cc2ccccc2)n[nH]1,4.35
4,CCc1ccc2nc3c(cc2c1)c(=O)n(-c1ccccc1)c1c3c(=O)n(C)c(=O)n1C,4.31
5,CCOc1ccc(NC(=O)CN(C)C(=O)c2ccc(C)o2)cc1OCC,2.09
6,CN(C)c1nc(N)nc(COC(=O)c2ccc(-n3cnnc3)cc2)n1,2.74
7,Cc1cc(C)n(C2=NCCN2S(=O)(=O)c2cc(C(F)(F)F)cc(C(F)(F)F)c2)n1,4.7
8,COc1cc(C2C(C#N)=C(N)Oc3cc(C)[nH]c(=O)c32)cc(OC)c1OC (centres undefined),2.55
9,Cc1ccc(-n2c(C)cc(=O)cc2C)cc1C,2.95
10,CCn1c(SCc2ccccc2F)nc2sc(C)c(C)c2c1=O,5.86
11,Cc1ccccc1N1C(=O)c2ccc(C(=O)OCC(=O)c3c(N)n(C)c(=O)n(C)c3=O)cc2C1=O,4.55
12,CC(=O)Oc1cc(C(=O)Nc2ccc(Oc3ccccc3)cc2)cc(OC(C)=O)c1OC(C)=O,2.89
13,Cc1nnc2c(=O)n(CCNc3ncc(C(F)(F)F)cc3Cl)c3ccc(Cl)cc3n12,4.57
14,C=CCNC(=O)CSc1nnc(CCn2nc(C)c(Br)c2C)n1CC,3.53
